Assay results: US20130150363A1, “Method of Treating Cancer Using a cMET and AXL Inhibitor and an ErbB Inhibitor” (GlaxoSmithKline, priority 2008, published 2013)

Tests used:
[1] = tested on: SW48 colon carcinoma cells; assay: Cell growth inhibition (CellTiter-Glo), SW48; format: cell-based; details: Homo sapiens, SW48, 72 h, 3 days
Text: (§1) Esophageal carcinoma cell line OE33 was purchased from ECACC European Collection of Cell Cultures (UK). Breast cancer cell line JIMT-1 and gastric carcinoma cell line MKN-45 were purchased from Deutsche Sammlung von Mikroorganismen and Zellkulturen GmbH (Germany); KPL-4, a human breast cancer cell line was kindly provided by Prof. J Kurebayashi (Kawasaki Medical School, Kurashiki, Japan). […] The LICR-LON-HN5 head and neck carcinoma cell line (HN5) was a gift from the Institute of Cancer Research, Surrey, U.K. HN5C12 was developed by single-cell cloning of HN5 followed by exposure to increasing concentrations of lapatinib. […] Cell growth inhibition was determined via CellTiter-Glo cell viability assays. […] ATP levels were determined by adding Cell Titer Glo0 (Promega), incubating for 20 minutes then the luminescent signal was read on the SpectraMax M5 plate with a 0.5 second integration time. Cell growth was calculated relative to vehicle (DMSO) treated control wells. […] CI values were calculated with the interpolated IC50 values and the mutually non-exclusive equation derived by Chou and […](a)+Db/IC50(b)+(Da×Db)/(IC50(a)×IC50(b)) where IC50(a) is the IC50 of the inhibitor A; IC50(b) is the IC50 for the inhibitor B; […] […] EOHSA at each dose was calculated as the minimum difference in average % inhibition between the combination and each monotherapy, from the appropriate ANOVA contrast. […]

[2] = tested on: SCC15 head and neck squamous cell carcinoma cells; assay: Cell growth inhibition (CellTiter-Glo), SCC15; format: cell-based; details: Homo sapiens, SCC-15, 72 h, 3 days
Text: Esophageal carcinoma cell line OE33 was purchased from ECACC European Collection of Cell Cultures (UK). Breast cancer cell line JIMT-1 and gastric carcinoma cell line MKN-45 were purchased from Deutsche Sammlung von Mikroorganismen and Zellkulturen GmbH (Germany); KPL-4, a human breast cancer cell line was kindly provided by Prof. J Kurebayashi (Kawasaki Medical School, Kurashiki, Japan). […] The LICR-LON-HN5 head and neck carcinoma cell line (HN5) was a gift from the Institute of Cancer Research, Surrey, U.K. HN5C12 was developed by single-cell cloning of HN5 followed by exposure to increasing concentrations of lapatinib. […] Cell growth inhibition was determined via CellTiter-Glo cell viability assays. […] BT474-J4 and HN5C12 were washed with PBS and plated in their culture media without lapatinib. […] ATP levels were determined by adding Cell Titer Glo0 (Promega), incubating for 20 minutes then the luminescent signal was read on the SpectraMax M5 plate with a 0.5 second integration time. Cell growth was calculated relative to vehicle (DMSO) treated control wells. […] Excess Over Highest Single Agent (EOHSA) is defined as a statistically significant improvement in the combination compared to the component monotherapies. […] Analysis was conducted using two-factor analysis of variance with interaction (model terms were dose of drug A, dose of drug B, and interaction between doses of drug A and B), followed by linear contrasts between each combination group and corresponding monotherapies. Analysis was conducted using SAS (version 9, provided by SAS Institute, Cary, N.C.). EOHSA at each dose was calculated as the minimum difference in average % inhibition between the combination and each monotherapy, from the appropriate ANOVA contrast. Since there are many comparisons for the % inhibition endpoint, p-value adjustment for multiple comparisons was performed. Hommel's procedure was implemented in order to improve the power while retaining […] Error Rate (FWE) control by using a sequentially rejective method. The p-values for both synergy and antagonism were calculated using this adjustment.

[3] = tested on: HS746T gastric carcinoma cells; assay: Cell growth inhibition (CellTiter-Glo), HS746T; format: cell-based; details: Homo sapiens, HS746T (HER3-low)
Text: as §1

[4] = tested on: phosphorylation of HER2, AKT, ERK and cyclin D1 in BT474 cells; assay: Western blot analysis, BT474; format: cell-based, human; details: BT474, 1 μM, 4 h
Method: (§2) Cells were plated at 250,000 to 500,000 per well in six-well plates (Falcon multiwell, Becton Dickinson, Franklin Lakes, N.J.). The following day, cells were treated with compounds in the growth medium containing 10% FBS. After treatment, cells were washed with cold PBS and lysed in the culture dishes using cell lysis buffer [40 mmol/L Tris-HCl (pH 7.4), 10% glycerol, 50 mmol/L beta-glycerophosphate, 5 mmol/L EGTA, 2 mmol/L EDTA, 0.35 mmol/L vanadate, 10 mmol/L NaF, and 0.3% Triton X-100] containing protease inhibitors (Complete Protease Inhibitor Tablets, Boehringer Mannheim, Indianapolis, Ind.). […] The membrane blots were rinsed with PBS and blocked in Odyssey Blocking buffer for 1 h at RT. Blots were probed with antibodies against specific proteins in blocking buffer plus 0.1% Tween 20 and incubated for 2 h at room temperature. The membranes were washed and incubated with IRDye 680 or IRDye 800 secondary antibodies at RT for 1 h in blocking buffer plus 0.1% Tween 20. The membranes were developed with Odyssey Infrared Imaging System (LI-COR Biosciences, Lincoln, Nebr.).
(§3) Cell lysate (50 μg of total protein) or proteins immunoprecipitated with anti-phospho-Tyrosine antibody were loaded in SDS-PAGE gel. The antibody against specific protein was used in the western blot analysis.

BT474 cells = assay: Cell apoptosis assays (Cell Death ELISA, Caspase-Glo 3/7), BT474; format: cell-based, human; details: BT474, presence of HGF (FIG. 4)
Method: Cell apoptosis was measured by both a cell death ELISA method, which measures DNA fragmentation, a hallmark of apoptosis; and Caspase-Glo® 3/7 assay which detects the activity of caspase 3/7, one of the execution enzymes for apoptosis in cells.
The Cell Death ELISA^Plus kit (Roche, Mannheim, Germany) was used according to the manufacturer's instructions. Cells were seeded in 96-well plates at 10,000 per well. After 24 h, cells were dosed and grown for an additional 48 h in RPMI 1640 with 10% FBS in 5% CO2 at 37° C. Cytoplasmic fractions of control and treated cells were transferred into streptavidin-coated 96-well plates and incubated with biotinylated mouse antihistone antibody and peroxidase-conjugated mouse anti-DNA antibody at room temperature for 2 h. Absorbance was determined at 405-490 nm using a Spectra Max Gemini microplate reader (Molecular Devices, Sunnyvale, Calif.).
The Caspase-Glo® 3/7 assay (Promega) is a homogeneous luminescent assay that measures caspase-3 and -7 activities. Cells were seeded in 96-well plates at 5,000 per well. […] Caspase 3/7 activity was detected by adding luminogenic caspase-3/7 substrate, which contains the tetrapeptide sequence DEVD, in a reagent optimized for caspase activity, luciferase activity and cell lysis, according to the manufacturer's instructions.

[5] = tested on: phosphorylation of HER2, AXL, AKT, ERK and cyclin D1 in BT474-J4 cells; assay: Western blot analysis, BT474-J4; details: BT474-J4, 1 μM each, 4 h
Method: as §2, §3

SMILES	IC50 ([1]; colon_SW48, +HGF (2 ng/mL)) [µM]	IC50 ([1]; colon_SW48, −HGF) [µM]	IC50 ([2]; hn_SCC15, +HGF (2 ng/mL)) [µM]	IC50 ([2]; hn_SCC15, −HGF) [µM]	IC50 ([3]; +HRG (10 ng/mL)) [µM]	IC50 ([3]; −HRG) [µM]	downstream signaling: phosphorylation of AKT and ERK, level of cyclin D1 [4]	phosphorylation of HER2 [4]	apoptosis induction (DNA fragmentation and caspase 3/7 activation) (BT474 cells)	phosphorylation of HER2 [5]
C#Cc1cccc(Nc2ncnc3cc(OCCOC)c(OCCOC)cc23)c1 [Erlotinib, N-(3-ethynylphenyl)-6,7-bis{[2-(methyloxy)ethyl]oxy}-4-quinazolinamine]	2.62	2.35	7.7	1.62						
CS(=O)(=O)CCNCc1ccc(-c2ccc3ncnc(Nc4ccc(OCc5cccc(F)c5)c(Cl)c4)c3c2)o1 [Lapatinib, N-(3-chloro-4-{[(3-fluorophenyl)methyl]oxy}phenyl)-6-[5-({[2-(methylsulfonyl)ethyl]amino}methyl)-2-furanyl]-4-quinazolinamine]			3.81	1.08	7.37	7.69	inhibits	inhibits	induces apoptosis	inhibits
